Each molecule was assayed against TrkA receptor (Homo sapiens (Human), UniProt P04629) (assay: DiscoverX PathHunter TrkA functional assay (U2OS cells, NGF stimulated)). Conditions: U2OS cells expressing TrkA-Prolink and Shc1-EA; compound 1 hour, then EC80 of NGF for 3 hours; luminescence.
Type: cell-based
Description: TrkA functional activity was measured using a DiscoverX PathHunter assay. In this assay, U2OS cells are express TrkA receptor as a fusion with the weakly complementing fragment of B-galactosidase, which DiscoverX calls “Prolink (PK)”; additionally, Shc1 is fused with a larger fragment, which is called “Enzyme Acceptor (EA)”. Activation of the TrkA receptor, upon NGF addition, results in the kinase domain being phosphorylated, resulting in subsequent recruitment of Shc1-EA protein. That recruitment results in an active B-galactosidase enzyme that is detected by addition of a chemiluminescent substrate.
All reagents were purchased from DiscoverX, except for the receptor agonists (NGF, BDNF, NT3) which were purchased from Peprotech. Cells were expanded and frozen into cryovials (TrkA p75 @ passage 13, 1.5×10^7 cells/vial; TrkC p75 @ passage 11, 1.5×10^7 cells/vial in InVitrogen Recovery Cell Freezing media), and stored in the vapor phase of liquid nitrogen, and thawed immediately before use. Thawed cells were added to a 384-well plate (BD Falcon 384-well white/clear, TC surface 120 uL assay plates (353963), 20 uL of 0.375e6 cells/mL=>7500 cells/well), and allowed to incubate overnight. Compound (10 mM starting dose: 202.5 nL compound yielding 0.81% DMSO final in total assay volume and starting doses 81 uM) was added the following morning and allowed to incubate on cells for 1 hour. Then, 5 uL EC80 of agonist (NGF for TrkA; BDNF for TrkB; NT3 for TrkC) was added and allowed to incubate for 3 hours at room temperature. DiscoverX PathHunter detection reagent is added (12 uL to plate and components diluted in parts as per kit instructions) and the plate is further incubated for 1 hour in the dark. The plate is read via luminescence on the Perkin Elmer Envision.

Sequence of TrkA receptor (P04629 33-796): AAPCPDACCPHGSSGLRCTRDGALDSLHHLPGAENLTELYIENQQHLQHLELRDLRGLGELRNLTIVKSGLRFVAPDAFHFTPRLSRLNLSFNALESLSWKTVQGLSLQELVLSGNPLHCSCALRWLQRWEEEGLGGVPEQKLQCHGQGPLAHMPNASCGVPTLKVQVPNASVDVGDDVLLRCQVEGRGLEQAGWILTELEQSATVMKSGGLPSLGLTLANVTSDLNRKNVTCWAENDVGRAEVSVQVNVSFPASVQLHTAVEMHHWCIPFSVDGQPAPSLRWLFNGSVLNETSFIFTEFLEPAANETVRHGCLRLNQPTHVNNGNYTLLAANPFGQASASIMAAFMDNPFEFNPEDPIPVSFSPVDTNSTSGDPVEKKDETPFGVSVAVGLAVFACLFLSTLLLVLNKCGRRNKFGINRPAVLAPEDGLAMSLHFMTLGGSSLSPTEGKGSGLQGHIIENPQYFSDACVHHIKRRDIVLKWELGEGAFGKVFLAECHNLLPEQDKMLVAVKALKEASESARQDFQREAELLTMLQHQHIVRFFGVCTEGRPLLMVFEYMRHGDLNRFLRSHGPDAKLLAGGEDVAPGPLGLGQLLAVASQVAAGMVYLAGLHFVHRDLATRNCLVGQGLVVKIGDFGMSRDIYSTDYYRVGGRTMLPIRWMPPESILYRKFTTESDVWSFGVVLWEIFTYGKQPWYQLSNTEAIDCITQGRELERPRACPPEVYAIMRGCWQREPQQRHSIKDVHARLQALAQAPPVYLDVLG

Row | Structure (SMILES) | IC50 [µM]
1 | Cn1ccnc1-c1cccc(NC(=O)Nc2c(-c3ccccc3)nc3ccccn23)c1 [Compound 27, 1-[3-(1-methyl-1H-imidazol-2-yl)phenyl]-3-(2-phenylimidazo[1,2-a]pyridin-3-yl)urea] | 1.6
2 | O=C(Nc1cccc2ccccc12)Nc1c(-c2ccccc2)nc2sccn12 [Compound 16, 1-naphthalen-1-yl-3-(6-phenylimidazo[2,1-b][1,3]thiazol-5-yl)urea] | 0.29
3 | O=C(Nc1ccc(C(F)(F)F)cc1)Nc1c(-c2ccccc2)nc2ccccn12 [Compound 23, 1-(2-phenylimidazo[1,2-a]pyridin-3-yl)-3-[4-(trifluoromethyl)phenyl]urea] | 4.3
4 | Cc1cc(NC(=O)Nc2c(-c3ccccc3)nc3ccccn23)n(-c2ccccc2)n1 [Compound 25, 1-(3-methyl-1-phenyl-1H-pyrazol-5-yl)-3-(2-phenylimidazo[1,2-a]pyridin-3-yl)urea] | 0.52
5 | O=C(Nc1ccccn1)Nc1cc(-c2ccccc2)nn1-c1ccccc1 [Compound 2, 1-(1,3-diphenyl-1H-pyrazol-5-yl)-3-pyridin-2-ylurea] | 0.16
6 | O=C(Nc1c(-c2ccccc2)nc2ccccn12)Nc1c(-c2ccccc2)nc2ccccn12 [Compound 1, 1,3-bis(2-phenylimidazo[1,2-a]pyridin-3-yl)urea] | 0.082
7 | Cc1ncc(NC(=O)Nc2cnc(C)nc2-c2ccccc2)c(-c2ccccc2)n1 [Compound 17, 1,3-bis(2-methyl-4-phenylpyrimidin-5-yl)urea] | 1.4
8 | Cc1ccc(NC(=O)Nc2ccccn2)c(-c2ccccc2)n1 [Compound 12, 1-(6-methyl-2-phenylpyridin-3-yl)-3-pyridin-2-ylurea] | 1.1
9 | Cc1cc(NC(=O)Nc2cccc(C)c2C)n(-c2ccccc2)n1 [Compound 7, 1-(2,3-dimethylphenyl)-3-(3-methyl-1-phenyl-1H-pyrazol-5-yl)urea] | 4.8
10 | Cc1cc(NC(=O)Nc2ccccc2-c2ccccc2)n(-c2ccccc2)n1 [Compound 6, 1-biphenyl-2-yl-3-(3-methyl-1-phenyl-1H-pyrazol-5-yl)urea] | 0.42
11 | Cc1ncc(NC(=O)Nc2c(-c3ccccc3)nc3ccccn23)c(-c2ccccc2)n1 [Compound 21, 1-(2-methyl-4-phenylpyrimidin-5-yl)-3-(2-phenylimidazo[1,2-a]pyridin-3-yl)urea] | 0.15
12 | CSc1ncc(NC(=O)Nc2cnc(SC)nc2-c2ccccc2)c(-c2ccccc2)n1 [Compound 18, 1,3-bis[2-(methylsulfanyl)-4-phenylpyrimidin-5-yl]urea] | 0.28
13 | Cc1cc(NC(=O)Nc2cccc3ccccc23)n(-c2ccccc2)n1 [Compound 4, 1-(3-methyl-1-phenyl-1H-pyrazol-5-yl)-3-naphthalen-1-ylurea] | 0.59
14 | Cc1onc(-c2ccccc2)c1NC(=O)NCc1ccccc1C(F)(F)F [Compound 14, 1-(5-methyl-3-phenylisoxazol-4-yl)-3-[2-(trifluoromethyl)benzyl]urea] | 0.35
15 | Cc1ncc(NC(=O)Nc2ccccc2-c2ccccc2)c(-c2ccccc2)n1 [Compound 13, 1-biphenyl-2-yl-3-(2-methyl-4-phenylpyrimidin-5-yl)urea] | 2.3
16 | Cc1ncc(NC(=O)Nc2ccccn2)c(-c2ccccc2)n1 [Compound 20, 1-(2-methyl-4-phenylpyrimidin-5-yl)-3-pyridin-2-ylurea] | 4
17 | Cc1cc(NC(=O)Nc2cccc(Br)n2)n(-c2ccccc2)n1 [Compound 5, 1-(6-bromopyridin-2-yl)-3-(3-methyl-1-phenyl-1H-pyrazol-5-yl)urea] | 4.8
18 | O=C(Nc1cccnc1-c1ccccc1)Nc1c(-c2ccccc2)nc2ccccn12 [Compound 24, 1-(2-phenylimidazo[1,2-a]pyridin-3-yl)-3-(2-phenylpyridin-3-yl)urea] | 0.45
19 | O=C(Nc1ccccn1)Nc1cc(-c2ccncc2)nn1-c1ccccc1 [Compound 9, 1-(1-phenyl-3-pyridin-4-yl-1H-pyrazol-5-yl)-3-pyridin-2-ylurea] | 0.35
20 | Cc1cc(NC(=O)Nc2cc(C)nn2-c2ccccc2)n(-c2ccccc2)n1 [Compound 3, 1,3-bis(3-methyl-1-phenyl-1H-pyrazol-5-yl)urea] | 2.7
21 | Cc1cc(NC(=O)Nc2cc(Br)ccn2)n(-c2ccccc2)n1 [Compound 8, 1-(4-bromopyridin-2-yl)-3-(3-methyl-1-phenyl-1H-pyrazol-5-yl)urea] | 3
22 | Cc1nc(-c2ccccc2)c(NC(=O)Nc2c(-c3ccccc3)nc3ccccn23)s1 [Compound 26, 1-(2-methyl-4-phenyl-1,3-thiazol-5-yl)-3-(2-phenylimidazo[1,2-a]pyridin-3-yl)urea] | 0.048
23 | Cc1ncc(NC(=O)Nc2cccc3ccccc23)c(-c2ccccc2)n1 [Compound 15, 1-(2-methyl-4-phenylpyrimidin-5-yl)-3-naphthalen-1-ylurea] | 4.1

Continued, values first:

Row | IC50 [µM] | Structure (SMILES)
24 | 1.4 | Cn1ncc(NC(=O)NCc2ccccc2C(F)(F)F)c1-c1ccccc1 [Compound 42, 1-(1-methyl-5-phenyl-1H-pyrazol-4-yl)-3-[2-(trifluoromethyl)benzyl]urea]
25 | 0.61 | Cc1nc(-c2ccccc2)c(NC(=O)Nc2sc(C)nc2-c2ccccc2)s1 [Compound 35, 1,3-bis(2-methyl-4-phenyl-1,3-thiazol-5-yl)urea]
26 | 2.1 | Cc1ncc(NC(=O)N[C@@H](C)C2CCCCC2)c(-c2ccccc2)n1 [Compound 41, 1-[(1S)-1-cyclohexylethyl]-3-(2-methyl-4-phenylpyrimidin-5-yl)urea]
27 | 0.42 | Cc1onc(-c2ccccc2)c1NC(=O)NCc1ccccc1SC(F)(F)F [Compound 45, 1-(5-methyl-3-phenylisoxazol-4-yl)-3-{2-[(trifluoromethyl)sulfanyl]benzyl}urea]
28 | 0.68 | Cc1ncc(NC(=O)NCc2ccccc2SC(F)(F)F)c(-c2ccccc2)n1 [Compound 40, 1-(2-methyl-4-phenylpyrimidin-5-yl)-3-{2-[(trifluoromethyl)sulfanyl]benzyl}urea]
29 | 1.4 | O=C(NCc1ccc(F)cc1C(F)(F)F)Nc1ccnn1-c1ccccc1 [Compound 39, 1-[4-fluoro-2-(trifluoromethyl)benzyl]-3-(1-phenyl-1H-pyrazol-5-yl)urea]
30 | 4.1 | Cc1nc(-c2ccccc2)c(NC(=O)Nc2c(-c3ccccc3)nc(C)n2C)s1 [Compound 34, 1-(1,2-dimethyl-4-phenyl-1H-imidazol-5-yl)-3-(2-methyl-4-phenyl-1,3-thiazol-5-yl)urea]
31 | 1 | O=C(Nc1c(-c2ccccc2)nc2ccccn12)Nc1c(-c2ccccc2)nc2ccc(Cl)nn12 [Compound 31, 1-(6-chloro-2-phenylimidazo[1,2-b]pyridazin-3-yl)-3-(2-phenylimidazo[1,2-a]pyridin-3-yl)urea]
32 | 1.8 | Cc1nc(-c2ccccc2)c(NC(=O)Nc2cccnc2-c2ccccc2)s1 [Compound 37, 1-(2-methyl-4-phenyl-1,3-thiazol-5-yl)-3-(2-phenylpyridin-3-yl)urea]
33 | 1.5 | O=C(Nc1c(-c2ccccc2)nc2ccccn12)Nc1c(-c2ccccc2)nc2ncccn12 [Compound 30, 1-(2-phenylimidazo[1,2-a]pyridin-3-yl)-3-(2-phenylimidazo[1,2-a]pyrimidin-3-yl)urea]
34 | 1.6 | Cn1ncc(NC(=O)NCc2ccccc2OC(F)(F)F)c1-c1ccccc1 [Compound 46, 1-(1-methyl-5-phenyl-1H-pyrazol-4-yl)-3-[2-(trifluoromethoxy)benzyl]urea]
35 | 0.46 | CCOC(=O)c1nc2ccccn2c1NC(=O)Nc1c(-c2ccccc2)nc2ccccn12 [Compound 28, ethyl 3-{[(2-phenylimidazo[1,2-a]pyridin-3-yl)carbamoyl]amino} imidazo[1,2-a]pyridine-2-carboxylate]
36 | 1.4 | Cc1ncc(NC(=O)NCc2cc(F)ccc2C(F)(F)F)c(-c2ccccc2)n1 [Compound 43, 1-[5-fluoro-2-(trifluoromethyl)benzyl]-3-(2-methyl-4-phenylpyrimidin-5-yl)urea]
37 | 1.1 | O=C(NCc1cc(F)ccc1C(F)(F)F)Nc1ccnn1-c1ccccc1 [Compound 38, 1-[5-fluoro-2-(trifluoromethyl)benzyl]-3-(1-phenyl-1H-pyrazol-5-yl)urea]
38 | 1 | CNC(=O)c1nc2ccccn2c1NC(=O)Nc1c(-c2ccccc2)nc2ccccn12 [Compound 32, N-methyl-3-{[(2-phenylimidazo[1,2-a]pyridin-3-yl)carbamoyl]amino}imidazo[1,2-a]pyridine-2-carboxamide]
39 | 1.4 | O=C(Nc1c(-c2ccccc2)nc2ccccn12)Nc1c(-n2cccn2)nc2ccccn12 [Compound 29, 1-(2-phenylimidazo[1,2-a]pyridin-3-yl)-3-[2-(1H-pyrazol-1-yl)imidazo[1,2-a]pyridin-3-yl]urea]
40 | 0.42 | O=C(NCc1ccccc1SC(F)(F)F)Nc1ccnn1-c1ccccc1 [Compound 44, 1-(1-phenyl-1H-pyrazol-5-yl)-3-{2-[(trifluoromethyl)sulfanyl]benzyl}urea]

Reference: patent US9896447B2, “TrkA kinase inhibitors, compositions and methods thereof” (MERCK SHARP & DOHME CORP., priority 2013, dated 2018)
